Measured values taken from patent publication US6498182B2, “Compounds” (Biovitrum AB, priority 2000, dated 2002).

Target: T1, Human PTP1B (Homo sapiens, UniProt P18031)
T1 construct: Human PTP1B (amino acid residues 1-298, cloned from a human placental library); made in house; host or cells: E. coli BL21(DE3)
T1 sequence (P18031 1-298): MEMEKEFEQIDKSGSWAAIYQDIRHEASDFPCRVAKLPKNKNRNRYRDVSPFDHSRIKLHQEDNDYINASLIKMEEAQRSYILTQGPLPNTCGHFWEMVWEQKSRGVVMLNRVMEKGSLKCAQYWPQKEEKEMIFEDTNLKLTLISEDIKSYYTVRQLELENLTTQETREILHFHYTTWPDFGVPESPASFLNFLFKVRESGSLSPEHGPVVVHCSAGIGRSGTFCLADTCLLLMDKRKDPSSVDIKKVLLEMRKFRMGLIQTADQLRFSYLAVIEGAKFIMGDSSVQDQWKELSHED
Test: PTP1B activity, pNPP substrate, 96-well plate
Type: biochemical
Details: 2 mM, control wells
Protocol: Human PTP1B (amino acid residues 1-298, cloned from a human placental library), without the GST tag and thrombin cleavage site, was inserted into a pMB replicon and transformed into E. coli BL21(DE3), a strain containing a chromosomal copy of the gene for T7 RNA polymerase under control of a lacUV5 promoter. Expression of PTP1B was induced with isopropyl thiogalactose and cells were lysed in lysis buffer comprising 50 mM Tris-HCl pH 7.5, 10% glycerol, 1 mM EDTA, 3 mM DTT, 3 mM MgCl2, and 0.2 mg/ml lysozyme with 1 mg/ml DNAse I. The soluble protein was purified by ion exchange, hydrophobic interaction and gel exclusion chromatography for use in assays to identify PTP1B inhibitors. The plasmid pGEX2K-SHP2 which encoded the catalytic domain of human SHP-2 (residues 252-529) was used to transform E. coli cells. […]
Human PTP1B activity was measured using p-nitrophenol phosphate (pNPP) as substrate in a 96-well microtiter plate format. An assay pH of 7.2 is used for standard assays (measured extinction coefficient=9800 at pH 7.2).
Standard assays were conducted at room temperature in a total volume of 0.2 ml that contains Hepes buffer (50 mM, pH 7.2), NaCl (50 mM), EDTA (1 mM), DTT (1 mM), bovine serum albumin (1 mg/ml), pNPP (1.25 mM) and PTP1B (500 ng/ml, 13.5 nM). […] The OD^405 was subsequently measured. […]

Compound: [Na+].[Na+].[Na+].[O]=[V]([O-])([O-])[O-] [sodium orthovanadate]
- inhibition of PTP1B-catalyzed hydrolysis of pNPP: completely
